Laboratory results as given in patent US10082499B2, “Short term isotope pulse labeling method for analysing metabolic products in biological samples” (Max-Delbrueck-Centrum fuer Molekulare Medizin, priority 2014, dated 2018).
“Also recorded” adds a separate entry of the source.

System: T98G cells
Experiment: pSIRM analysis of glycolytic inhibition (13C-glucose pulse labeling, GC-MS)
Assay type: cell-based
Experimental: GC-MS measurement: Metabolite analysis was performed on a gas chromatography coupled to time of flight mass spectrometer (LECO-Pegasus III— TOF-MS-System, LECO), supplemented with an auto-sampler (MultiPurpose Sampler 2 XL, Gerstel). Samples and quantification standards were injected in split mode (split 1:5, injection volume: 1 ul,) in a temperature-controlled injector (CAS4, Gerstel) with a baffled glass-liner (Gerstel). The following temperature program was applied during sample injection: Initial temperature of 80° C. for 30 s followed by a ramp with 12° C./min to 120° C. and a second ramp with 7° C./min to 300° C. and final hold for 2 min. Gas chromatographic separation was performed on an Agilent 6890N (Agilent), equipped with a Varian VF-5 ms-column of 30 m length, 250 μm inner diameter and 0.25 μm film thickness (Varian). Helium was used as carrier gas with a flow rate of 1.2 mL/min. Gas chromatography was performed with the following temperature gradient: 2 min heating at 70° C., first temperature gradient with 5° C./min up to 120° C. and hold for 30 s, subsequently a second temperature increase of 7° C./min up to 350° C. with a hold time of 2 min. Spectra were recorded in a mass range of 60 to 600 u with 20 spectra/s at a detector voltage of 1750 V.
Data analysis: The vendor software ChromaTOF Version 4.42 (LECO Corp. St. Joseph—USA) was used for metabolite evaluation with the following parameter: baseline offset of 1, peak width of 4 s, signal/noise of 20, peak smoothing of 11 data-points. Retention indices were calculated based on retention index standards as described (Ref). GoIm Metabolome Database (GMD) provided peak identification. The quantification routine of ChromaTOF was used for external calibration based on the measured quantification standards. Exported csv-files included: Name, quant mass, retention index, 1st dimension retention time, 2nd dimension retention time, area, concentration, match, reverse, quant signal/noise, type, concentration units and the peak true spectrum in absolute values. For further data analysis the tool MetMax was developed in cooperation with the MPIMP in Potsdam-Golm (http://gmd.mpimp-golm.mpg.de/apps/metmax). MetMax provided of extraction of peak areas and quantities (retention analysis mode), and intensities of pre-defined mass ranges (isotope concentrator mode) from the exported csv-files. The in-house developed pSIRM-wizard enabled the determination of ^13C-label incorporation based on the exported data following the descriptions and equations stated in the paper.
Cell harvest: Growth media was removed from cells and cells were incubated in 5 ml of prewarmed (37° C.) wash-buffer (137 mM NaCl, 3 mM KCl, 5 mM HEPES, adjusted to a pH of 7.2-7.4) enriched with the same amount of glucose and glutamine as in the growth media (2.5 g/L and 4 mM respectively). For the metabolic labeling the wash-buffer is used as labeling buffer with glucose or glutamine replaced by their ^13C-counterpart. Cells were incubated for 3 minutes at 37° C. before harvest. The buffer was removed followed by an immediate addition of 5 ml of prechilled (−20 to −40° C.) 50% MeOH (with 2-4 μg/mL Cinnamic acid as internal standard) to the plate. Cells were scratched of the plates using cell-scraper and transferred to a falcon, which contain 1 ml of chloroform. Cell suspension was frozen in liquid nitrogen and stored at −80° C. until extraction. To extract cell metabolism the suspension was shaken for 30 minutes at 4° C., followed by a centrifugation for 10 minutes to perform phase separation. 4.5 ml of the upper, polar phase were transferred into a new falcon and dried under vacuum. On the next day the pellet was resuspended in 530 μl 20% Methanol (4° C.), shaken at 4° C. until completely solved, transferred into two eppies (2×250 μl) and dried under vacuum. The dried samples were stored at −20° C. and derivatized as described above. […]

[1] = 2 mM inhibitor 12 min + 3 min 13C-glucose
[2] = 2 mM inhibitor 12 min, then 3 min 13C-glucose in presence of inhibitor

Row | SMILES | 13C-glucose incorporation (carbon flow) into citrate [1] | inhibitory effect on glycolysis [1] | isotope incorporation in pyruvate and lactate / pyruvate or lactate levels [1] | reduction of the 13C-fraction of hexose-phosphates [2] | inhibitory effect on glycolysis (10 mM inhibitor) | isotope incorporation rates in G6P (10 mM inhibitor) | reduction of glycolytic flow (10 mM inhibitor) | carbon flow downstream of GAPDH (2 mM inhibitor) | concentration of 3PGA [1] | labelled fraction of G6P and F6P [1] | total concentration of G6P and F6P (hexose phosphates) [1] | reduction of carbon-flow into pyruvate, lactate and citrate [2]
1 | O=CC[C@@H](O)[C@H](O)[C@H](O)CO [2DG, 2-deoxyglucose] | extended; also recorded: increasing | negligible | affected only marginally; also recorded: did not affect | 20% | stronger inhibition | not affected | up to 80% |  |  |  |  | 
2 | O=C(O)C(=O)CBr [BrPyr] |  | nearly completely inhibited |  |  |  |  |  | strong decline | diminished below the detection limit | reduced | increased | around 100%
